Measurements from patent EP4596566A1, “COMPOUND PRODUCTION METHOD” (The University of Tokyo, priority 2022, dated 2024).
*1 amine or outer side, *2 acyl side, *3 side chain or, on linkers, in order; H or OH if unused. Where a SMILES comes first, the peptide text is derived from it. Bridges are numbered along the chain shown (N, C = ends). [ ]: non-standard residue; d: D form. The star is where a group is joined. X2 = C=C(N[*:2])c1nc(-c2nc(-c3nc(C(=O)NCCC(=O)NCCOCCOCCCCCCCl)cs3)ccc2C(=O)[*:1])cs1; X1 = C=C(N[*:2])c1nc(-c2nc(-c3nc(C(=O)OC)cs3)ccc2C(=O)[*:1])cs1; Nle = CCCC[C@H](N)C(=O)O; Dhb = C/C=C(\N)C(=O)O; Cam = NC(=O)C*

Tests used:
[1] = tested on: NFkB reporter gene activity; test: NFkB reporter gene assay in THP1-XBlue stable cell line; assay type: cell-based; conditions: read-out: inhibition (IC50) of NFkB reporter gene activity
IRAK4 = molecular target: T1, IRAK4 (Homo sapiens, UniProt Q9NWZ3); test: Surface plasmon resonance (SPR) binding affinity to IRAK4
T1 sequence (Q9NWZ3 1-460): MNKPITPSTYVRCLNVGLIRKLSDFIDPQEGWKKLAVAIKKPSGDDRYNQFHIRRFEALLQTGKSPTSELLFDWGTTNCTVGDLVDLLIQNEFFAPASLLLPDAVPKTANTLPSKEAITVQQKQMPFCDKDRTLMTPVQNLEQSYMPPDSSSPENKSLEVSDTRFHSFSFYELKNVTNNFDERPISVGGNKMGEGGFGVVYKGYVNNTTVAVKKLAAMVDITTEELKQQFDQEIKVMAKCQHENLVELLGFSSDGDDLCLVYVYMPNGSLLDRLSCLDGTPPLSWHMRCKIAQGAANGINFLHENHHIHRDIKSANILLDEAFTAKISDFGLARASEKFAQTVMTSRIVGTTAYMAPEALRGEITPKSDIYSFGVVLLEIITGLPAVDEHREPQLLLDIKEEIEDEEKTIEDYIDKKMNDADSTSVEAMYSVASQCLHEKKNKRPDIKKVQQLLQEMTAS
Description: Next, the binding affinity of each of the synthesized thiopeptides (14 types excluding IR1-ct and IR15-ct in Figure 8) to the target IRAK4 and TLR10 was examined using surface plasmon resonance (SPR). […] Next, using an ADP-Glo-based kinase inhibition assay, the IC50 values of 4 types of thiopeptides for IRAK4 excluding IR1-ct and IR15-ct were evaluated.

[2] = Metabolic stability in human serum at 37°C, LC/MS; assay type: in vitro ADME
Description: The compounds were incubated with a human serum at 37°C, and the amount of the residual test substance at various points in time was quantified by LC/MS with respect to an internal standard substance. […] Next, it was examined whether or not the half-lives of the compounds were affected by the reactivity of the Dha residue. The Dha residue may be conjugated with various serum thiols.
In addition, the metabolic stability of all of the 14 types of candidate thiopeptides was examined. The compound was incubated with the human serum at 37°C, and the amount of the residual thiopeptide at various points in time was quantified by LC/MS with respect to the internal standard substance. The half-life of the thiopeptide for TLR10 was generally as long as 38.2 hours, and the thiopeptide was stable.

TNIK = TNIK (Homo sapiens, UniProt Q9UKE5); test: Surface plasmon resonance (SPR) binding affinity to TNIK; conditions: ATP 1 mM, 15-fold higher than KM
From the text: Surface plasmon resonance (SPR) was used to evaluate the binding affinity of the thiopeptide synthesized in Example 2 to TNIK.

TNIK, sequence (Q9UKE5 whole entry): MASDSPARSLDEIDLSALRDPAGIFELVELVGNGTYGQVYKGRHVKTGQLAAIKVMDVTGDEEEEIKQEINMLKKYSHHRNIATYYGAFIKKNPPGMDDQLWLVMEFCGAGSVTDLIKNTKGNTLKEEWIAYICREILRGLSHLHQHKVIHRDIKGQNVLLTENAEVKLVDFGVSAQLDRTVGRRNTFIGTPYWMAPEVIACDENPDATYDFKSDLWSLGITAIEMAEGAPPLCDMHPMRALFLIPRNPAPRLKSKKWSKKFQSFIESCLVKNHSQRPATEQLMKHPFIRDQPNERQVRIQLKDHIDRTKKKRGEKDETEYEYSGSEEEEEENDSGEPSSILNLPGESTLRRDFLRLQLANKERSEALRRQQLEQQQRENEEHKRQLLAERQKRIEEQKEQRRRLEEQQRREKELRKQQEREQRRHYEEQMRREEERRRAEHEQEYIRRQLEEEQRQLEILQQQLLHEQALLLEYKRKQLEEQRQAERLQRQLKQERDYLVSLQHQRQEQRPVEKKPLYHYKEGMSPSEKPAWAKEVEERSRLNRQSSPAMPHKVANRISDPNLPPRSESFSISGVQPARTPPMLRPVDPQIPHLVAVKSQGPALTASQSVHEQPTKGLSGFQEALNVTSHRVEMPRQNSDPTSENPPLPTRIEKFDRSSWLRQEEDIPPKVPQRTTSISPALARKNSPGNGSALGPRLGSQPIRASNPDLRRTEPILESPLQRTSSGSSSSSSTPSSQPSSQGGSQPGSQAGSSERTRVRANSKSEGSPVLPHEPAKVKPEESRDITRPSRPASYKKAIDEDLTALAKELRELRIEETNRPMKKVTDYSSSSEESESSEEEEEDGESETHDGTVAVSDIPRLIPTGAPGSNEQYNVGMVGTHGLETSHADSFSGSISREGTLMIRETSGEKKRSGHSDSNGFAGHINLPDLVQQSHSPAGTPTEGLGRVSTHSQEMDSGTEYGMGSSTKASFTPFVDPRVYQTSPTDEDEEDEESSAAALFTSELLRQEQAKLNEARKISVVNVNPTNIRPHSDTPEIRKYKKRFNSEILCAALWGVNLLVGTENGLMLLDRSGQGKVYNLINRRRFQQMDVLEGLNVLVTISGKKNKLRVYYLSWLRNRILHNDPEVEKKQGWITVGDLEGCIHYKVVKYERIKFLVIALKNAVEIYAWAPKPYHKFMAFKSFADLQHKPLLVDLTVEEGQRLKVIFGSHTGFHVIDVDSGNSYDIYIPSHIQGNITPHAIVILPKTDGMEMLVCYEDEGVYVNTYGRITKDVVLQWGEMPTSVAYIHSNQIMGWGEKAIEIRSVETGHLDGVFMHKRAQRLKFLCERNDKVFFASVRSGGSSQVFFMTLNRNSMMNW

SMILES | IC50 [1] [µM] | half-life (τ1/2) in human serum [2] [h] | other results
C=C1NC(=O)[C@H](CCCCN)NC(=O)[C@H](Cc2ccc(O)cc2)NC(=O)[C@H]([C@@H](C)CC)NC(=O)[C@H](CCCNC(=N)N)NC(=O)[C@H](CCCNC(=N)N)NC(=O)[C@H](CCCCN)NC(=O)[C@H](Cc2ccccc2)NC(=O)[C@H](CC(C)C)NC(=O)[C@H](CCSC)NC(=O)[C@H](CO)NC(=O)[C@H](Cc2c[nH]c3ccccc23)NC(=O)c2ccc(-c3nc(C(=O)NCCC(=O)NCCOCCOCCCCCCCl)cs3)nc2-c2csc1n2 [IR1-ct] (WSMLFKRRIYK; linker N-C via X2) | 7.8 | – | –
C=C1NC(=O)[C@H](CCCCN)NC(=O)[C@H](Cc2ccc(O)cc2)NC(=O)[C@H]([C@@H](C)CC)NC(=O)[C@H](CCCNC(=N)N)NC(=O)[C@H](CCCNC(=N)N)NC(=O)[C@H](CCCCN)NC(=O)[C@H](Cc2ccccc2)NC(=O)[C@H](CC(C)C)NC(=O)[C@H](CCSC)NC(=O)[C@H](CO)NC(=O)[C@H](Cc2c[nH]c3ccccc23)NC(=O)c2ccc(-c3nc(C(=O)OC)cs3)nc2-c2csc1n2 [IR1] (WSMLFKRRIYK; linker N-C via X1) | – | – | Kd (IRAK4): 0.0013 µM
C=C1NC(=O)/C(=C/C)NC(=O)[C@H](Cc2c[nH]c3ccccc23)NC(=O)[C@H](Cc2c[nH]cn2)NC(=O)[C@H](Cc2c[nH]c3ccccc23)NC(=O)[C@H]([C@@H](C)O)NC(=O)[C@H]([C@@H](C)CC)NC(=O)[C@H](Cc2ccccc2)NC(=O)[C@H](CCC(N)=O)NC(=O)[C@H](CCCNC(=N)N)NC(=O)[C@H](CCCCN)NC(=O)[C@H](CCCC)NC(=O)[C@H](CO)NC(=O)[C@H](Cc2c[nH]c3ccccc23)NC(=O)c2ccc(-c3nc(C(=O)NCCC(=O)NCCOCCOCCCCCCCl)cs3)nc2-c2csc1n2 [IR15-ct] (WS[Nle]KRQFITWHW[Dhb]; linker N-C via X2) | 7 | – | –

Further lines, with some results ahead:

IC50 [1] [µM] | half-life (τ1/2) in human serum [2] [h] | SMILES | other results
– | 88 | C=C1NC(=O)[C@H](CO)NC(=O)[C@H](CSCC(N)=O)NC(=O)CNC(=O)[C@H](Cc2ccc(O)cc2)NC(=O)[C@H](C)NC(=O)[C@H](CO)NC(=O)[C@H](CC(=O)O)NC(=O)CNC(=O)[C@H](CC(C)C)NC(=O)[C@H](Cc2c[nH]c3ccccc23)NC(=O)[C@H](Cc2c[nH]c3ccccc23)NC(=O)c2ccc(-c3nc(C(=O)OC)cs3)nc2-c2csc1n2 [TP4] (WWLGDSAYGC(Cam)S; linker N-C via X1) | –
– | 14 | C=C1NC(=O)CNC(=O)[C@H](CC(N)=O)NC(=O)[C@H](CC(C)C)NC(=O)CNC(=O)[C@H](CCCCN)NC(=O)[C@H](C)NC(=O)[C@H]([C@@H](C)CC)NC(=O)[C@H](CO)NC(=O)[C@H](Cc2c[nH]c3ccccc23)NC(=O)[C@H](C)NC(=O)[C@H](Cc2c[nH]c3ccccc23)NC(=O)c2ccc(-c3nc(C(=O)OC)cs3)nc2-c2csc1n2 [TP8] (WAWSIAKGLNG; linker N-C via X1) | binding to TNIK in the presence of the saturated concentration of ATP (TNIK): bonded to TNIK
